{
  "source": "patent US8192986B2",
  "about": "“Compositions and methods for treatment of protein misfolding diseases” (Whitehead Institute for Biomedical Research, priority 2004, dated 2012)",
  "system": "yeast cells expressing low levels of huntingtin",
  "assay": "Huntingtin toxicity in yeast grown in the presence of an ER stress inducer (FIG. 6B)",
  "type": "cell-based",
  "conditions": "yeast cells grown in the presence of tunicamycin, low levels of huntingtin expressed",
  "from_the_text": "The unfolded protein response in yeast is depicted in FIG. 6A. […] Conversely, expression of constitutively active IRE1 or HAC (proteins that induce the UPR) ameliorated the toxic effects of high level expression of 103 Q huntingtin in yeast (FIGS. 6D and 6E).",
  "data": [
    {"substance": "tunicamycin", "values": [
      {"measurement": "huntingtin toxicity in yeast cells", "value": "enhanced toxicity"}
    ]}
  ]
}
